In US8247224B2, “Recombinant construct for detection of halogenated aromatic hydrocarbons” (National Health Research Institutes, priority 2010, dated 2012):

Molecular target: T1, AhR (Rattus norvegicus, UniProt P41738)
T1 construct: introducing a recombinant construct as described above into a host cell that expresses AhR; endogenous in cells; host or cells: H-4-II-E cells infected with the AdEasy-4XDRE-TATA-Luc reporter adenovirus
T1 sequence (P41738 10-853): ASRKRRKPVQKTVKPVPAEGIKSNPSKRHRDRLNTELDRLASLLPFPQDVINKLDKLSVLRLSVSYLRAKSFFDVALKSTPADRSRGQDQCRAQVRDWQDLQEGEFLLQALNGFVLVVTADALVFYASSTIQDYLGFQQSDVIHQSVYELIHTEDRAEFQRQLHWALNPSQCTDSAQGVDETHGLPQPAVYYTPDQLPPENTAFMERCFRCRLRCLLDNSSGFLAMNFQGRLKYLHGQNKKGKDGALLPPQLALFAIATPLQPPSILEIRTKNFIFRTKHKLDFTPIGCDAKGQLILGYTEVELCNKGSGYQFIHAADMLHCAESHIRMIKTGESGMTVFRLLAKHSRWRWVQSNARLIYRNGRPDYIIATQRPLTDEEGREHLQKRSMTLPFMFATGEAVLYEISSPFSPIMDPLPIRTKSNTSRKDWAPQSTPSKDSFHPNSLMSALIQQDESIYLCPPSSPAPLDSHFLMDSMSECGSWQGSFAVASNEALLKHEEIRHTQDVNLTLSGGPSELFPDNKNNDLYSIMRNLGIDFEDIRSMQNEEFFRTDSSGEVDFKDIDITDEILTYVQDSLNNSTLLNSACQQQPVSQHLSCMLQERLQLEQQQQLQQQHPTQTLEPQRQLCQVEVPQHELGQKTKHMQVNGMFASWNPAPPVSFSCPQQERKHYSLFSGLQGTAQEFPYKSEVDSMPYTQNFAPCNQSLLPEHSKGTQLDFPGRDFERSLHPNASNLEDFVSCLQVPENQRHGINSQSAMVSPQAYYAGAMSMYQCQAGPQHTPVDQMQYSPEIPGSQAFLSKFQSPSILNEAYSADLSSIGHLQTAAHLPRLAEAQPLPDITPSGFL
Experiment: Luciferase activity of H-4-II-E cells infected with AdEasy-4XDRE-TATA-Luc and treated with TCDD
Type: cell-based
Conditions: AdEasy-4XDRE-TATA-Luc at MOI of one particles/cell for 16 hours, TCDD for 24 hours, luciferase activity (RLU), FIG. 6
Excerpt: As known in the art, the action of the HAH compounds is mediated through a cytosolic transcription factor, called the aryl hydrocarbon receptor (AhR). After binding of the ligand (HAH compounds), the resulted AhR complex binds to specific DNA sequences i.e. DREs, and then results in transcriptional activation of the adjacent responsive genes. The consensus sequence of the DREs is 5′-TNGCGTG-3′ where N means any nucleotide of A, T, G and C.
H-4-II-E cells (Bioresources Collection and Research Center (BCRC), Food Industry Research and Development Institute (FIRDI), Hsinchu, Taiwan) were seeded on 96-well plates at a density of 2×10^4 cells/well in culture medium (80% Minimum essential medium Eagle with 0.1 mM non-essential amino acids, Earle's BSS, 10% fetal bovine serum and 10% calf serum) and cultured overnight in a humidified atmosphere containing 5% CO2 at 37° C. Subsequently, the cells were incubated with AdEasy-4XDRE-TATA-Luc as obtained in Example 1 at a multiplicity of infection (MOI) of one particles/cell for 16 hours. […] Luciferase activity was measured by Luciferase Assay System (Promega, Madison, Wis., USA) according to the standard protocol as provided using the programmed microplate luminometer MicroLumatPlus LB96V (EG&G Berthold, Germany). The luciferase activity was expressed as relative light units (RLU).

For `Clc1cc2c(cc1Cl)Oc1cc(Cl)c(Cl)cc1O2` [TCDD, 2,3,7,8-tetrachlorodibenzo-p-dioxin], the “concentrations between which the luciferase response shows a steep slope” value was 10^−12 to 10^−10 M and the detection limit was “around 10^−12 M”.
